Test results from publication PMC9453454, “Design, synthesis, and anticancer activity of three novel palbociclib derivatives” (Frontiers in Oncology, 2022).

What was measured:
[1] = system: Huh-7 cells; experiment: MTT in vitro cytotoxicity, Huh-7; type: cell-based, human; conditions: Huh-7 human liver cancer cells, MTT, 48 h; read-out: IC50
Experimental: (§1) Human lung cancer cells (NCI-H460, NCI-H1299, and A549), human breast cancer cells (MDA-MB-231, MDA-MB-453, and MCF-7), human liver cancer cells (Huh-7 and HepG2), human colon cancer cells (coca-2, HT-29, and HCT116), human cervical cancer cells (HeLa), human normal lung cells (BEAS-2B), and human normal […] (MCF-10) were from the State Key Laboratory of Pharmaceutical Biotechnology, Nanjing University. NCI-H460 were cultured in 1640 medium containing 10% fetal bovine serum (FBS). MDA-MB-231 were cultured in L15 medium containing 10% FBS without CO2, and other cell lines were cultured in DMEM medium containing 10% FBS CO2 in the incubator.
(§2) MTT assay was used to identify 14 different cell lines (human lung cancer cells NCI-H460, NCI-H1299, and A549; human breast cancer cells MDA-MB-231, MDA-MB-453, and MCF-7; human liver cancer cells Huh-7 and HepG2; human colon cancer cells coca-2, HT-29, and HCT116; and human cervical cancer cells HeLa) and 2 kinds of normal cell lines (human normal lung epithelial cells BEAS-2B, human normal breast epithelial cells MCF10-A) for quantitative analysis ([15]). In addition, 10-HCPT and palbociclib were used as positive control.
(§3) Cells were harvested during the logarithmic growth phase and seeded into 96-well plates at a density of 2.0×10^3 cells/well. After being incubated for 24 h, the cells were treated with different concentrations of various culture programs for 48 h. Afterwards, 20 μl of MTT solution (5 mg/ml) was added to each well, and the cells were incubated in a 5% CO2 atmosphere at 37°C for another 4 h. Then, the supernatant was discarded, and the formazan crystals were dissolved in 150 μl DMSO. Subsequently, the absorbance was measured at 570 nm via a Tecan microplate reader. The concentration that caused 50% inhibition of cell viability (IC50) values was calculated by GraphPad Software. Triplicate experiments were performed in parallel for each concentration, and the results are shown as the mean ± SD. The inhibitory ratio was calculated using the following formula: inhibitory ratio (%) = [1−(mean absorbance of experiment group)/(mean absorbance of control group)] × 100.

[2] = system: HepG2 cells; experiment: MTT in vitro cytotoxicity, HepG2; type: cell-based, human; conditions: HepG2 human liver cancer cells, MTT, 48 h; read-out: IC50
Experimental: as §1, §2, §3

[3] = system: NCI-H1299 cells; experiment: MTT in vitro cytotoxicity, NCI-H1299; type: cell-based, human; conditions: NCI-H1299 human lung cancer cells, MTT, 48 h; read-out: IC50
Experimental: as §1, §2, §3

[4] = system: MCF10-A cells; experiment: MTT in vitro cytotoxicity, MCF10-A normal breast epithelial cells; type: cell-based, human; conditions: MCF-10A; MCF10-A human normal breast epithelial cells, MTT, 48 h; read-out: IC50
Experimental: as §1, §2, §3

[5] = system: MCF-7 cells; experiment: MTT in vitro cytotoxicity, MCF-7; type: cell-based, human; conditions: MCF7; MCF-7 human breast cancer cells, MTT, 48 h; read-out: IC50
Experimental: as §1, §2, §3

[6] = system: Hela cells; experiment: MTT in vitro cytotoxicity, Hela; type: cell-based, human; conditions: Hela human cervical cancer cells, MTT, 48 h; read-out: IC50
Experimental: as §1, §2, §3

[7] = system: MDA-MB-231 cells; experiment: MTT in vitro cytotoxicity, MDA-MB-231; type: cell-based, human; conditions: MDA-MB-231 human breast cancer cells, MTT, 48 h; read-out: IC50
Experimental: as §1, §2, §3

[8] = system: HCT116 cells; experiment: MTT in vitro cytotoxicity, HCT116; type: cell-based, human; conditions: HCT-116; HCT116 human colon cancer cells, MTT, 48 h; read-out: IC50
Experimental: as §1, §2, §3

[9] = system: BEAS-2B cells; experiment: MTT in vitro cytotoxicity, BEAS-2B normal lung epithelial cells; type: cell-based, human; conditions: BEAS-2B human normal lung epithelial cells, MTT, 48 h; read-out: IC50
Experimental: as §1, §2, §3

[10] = system: HT-29 cells; experiment: MTT in vitro cytotoxicity, HT-29; type: cell-based, human; conditions: HT-29 human colon cancer cells, MTT, 48 h; read-out: IC50
Experimental: as §1, §2, §3

[11] = system: MDA-MB-453 cells; experiment: MTT in vitro cytotoxicity, MDA-MB-453; type: cell-based, human; conditions: MDA-MB-453 human breast cancer cells, MTT, 48 h; read-out: IC50
Experimental: as §1, §2, §3

[12] = system: NCI-H460 cells; experiment: MTT in vitro cytotoxicity, NCI-H460; type: cell-based, human; conditions: NCI-H460 human lung cancer cells, MTT, 48 h; read-out: IC50
Experimental: as §1, §2, §3

[13] = system: A549 cells; experiment: MTT in vitro cytotoxicity, A549; type: cell-based, human; conditions: A549 human lung cancer cells, MTT, 48 h; read-out: IC50
Experimental: as §1, §2, §3

[14] = system: Coca-2 cells; experiment: MTT in vitro cytotoxicity, Coca-2; type: cell-based, human; conditions: Coca-2 human colon cancer cells, MTT, 48 h; read-out: IC50
Experimental: as §1, §2, §3

[15] = system: PI3K, AKT, p-PI3K, and p-AKT; experiment: Western blot of PI3K/AKT pathway-related proteins in NCI-H460; type: cell-based, human; conditions: NCI-H460, 0, 0.5, 1, 2 μM for 24 h
Experimental: (§4) NCI-H460 cells were harvested in logarithmic growth phase and seeded into six-well plates at a density of 5.0 × 10^3 cells/well. After being incubated for 48 h, the cells were harvested with 0.25% Trypsin after exposed to various concentrations of HP-1 (0, 0.5, 1, 2 μM), 10-HCPT (2 μM), and pabocini (2 μM) for 24 h.Then, precooled radio-immunoprecipitation assay (RIPA) lysates [10 mM Tris–HCl, 1 mM EDTA, 1% sodium dodecyl sulfate (SDS), 1 mM dithiothreitol (DTT), 0.1 mM phenylmethylsulfonyl fluoride (PMSF), protease inhibitors, 1% Nonidet P-40, pH 8] were added to them and placed on ice to lyse the cells for 30 min. After centrifugation at 10,000 rpm and 4°C for 10 min, the supernatant was collected to obtain soluble proteins. Lysates were centrifuged at 10,000 rpm for 20 min at 4°C, and the supernatant was collected.
(§5) The absorbance value was measured at 562 nm using a microplate analyzer to calculate the protein content. An equal amount of protein was separated by 10% SDS–polyacrylamide gel electrophoresis (SDS-PAGE) gels and transferred onto PVDF membrane. […] Finally, the membrane was placed on the membrane carrier plate, and the bands were detected with enhanced chemiluminescence reagent to indicate the protein expression.

[16] = system: NCI-H460 cells; experiment: Annexin V/PI apoptosis by flow cytometry, NCI-H460; type: cell-based, human; conditions: same concentration (not given)
Experimental: NCI-H460 cells were harvested in logarithmic growth phase and seeded into six-well plates at a density of 5.0 × 10^3 cells/well. After being incubated for 24 h, the cells were harvested with 0.25% Trypsin after exposed to various culture programs, washed with PBS, and re-suspended in 500 μl binding buffer. The experiment was triply replicated. Then, the cells were stained by adding to 5 μl Annexin V-FITC and 5 μl PI for15 min at 25°C in the dark. Finally, the cells were detected and analyzed using a flow cytometer with FlowJo 7.6.1.

[17] = system: Cyclin D, CDK4, CDK6, Rb, and p-Rb; experiment: Western blot of Cyclin D-CDK4/6-Rb pathway proteins in NCI-H460; type: cell-based, human; conditions: NCI-H460, 0, 0.5, 1, 2 μM for 24 h
Experimental: as §4, §5

Structure (SMILES)	IC50 [1] [µM]	IC50 [2] [µM]	IC50 [3] [µM]	IC50 [4] [µM]	IC50 [5] [µM]	IC50 [6] [µM]	IC50 [7] [µM]	melting point [°C]	IC50 [8] [µM]	IC50 [9] [µM]	IC50 [10] [µM]	IC50 [11] [µM]	IC50 [12] [µM]	IC50 [13] [µM]	IC50 [14] [µM]	other results
CC[C@]1(O)C(=O)OCc2c1cc1n(c2=O)Cc2cc3cc(OC(=O)/C=C/C(=O)N4CCN(c5ccc(Nc6ncc7c(C)c(C(C)=O)c(=O)n(C8CCCC8)c7n6)nc5)CC4)ccc3nc2-1 [HP-3, (R)-4-ethyl-4-hydroxy-3,14-dioxo-3,4,12,14-tetrahydro-1H-pyrano[3’,4’:6,7] indolizino[1,2-b]quinolin-9-yl(E)-4-(4-(6-((6-acetyl-8-cyclopentyl-5-methyl-7-oxo-7,8-dihydropyrido[2,3-d]pyrimidin-2-yl)amino)pyridin-3-yl)piperazin-1-yl)-4-oxobut-2-enoate]	33.7 ± 1.03	6.84 ± 0.91	4.35 ± 0.13	37.3 ± 1.66	21.4 ± 1.27	14.9 ± 0.73	27.3 ± 1.43	45.7 to 47.3	23.2 ± 0.49	39.98 ± 0.16	15.4 ± 0.42	8.31 ± 0.52	2.08 ± 0.25	5.52 ± 0.11	17.1 ± 0.28	–
CC(=O)c1c(C)c2cnc(Nc3ccc(N4CCNCC4)cn3)nc2n(C2CCCC2)c1=O [Palbociclib]	32.1 ± 1.93	7.55 ± 1.49	5.09 ± 0.24	39.7 ± 0.57	8.73 ± 0.33	21.35 ± 0.13	11.7 ± 1.75	–	31.6 ± 1.21	38.8 ± 0.59	16.8 ± 0.39	5.15 ± 1.04	2.95 ± 0.11	6.16 ± 0.19	35.9 ± 0.41	–
CC[C@]1(O)C(=O)OCc2c1cc1n(c2=O)Cc2cc3cc(OC(=O)CCCC(=O)N4CCN(c5ccc(Nc6ncc7c(C)c(C(C)=O)c(=O)n(C8CCCC8)c7n6)nc5)CC4)ccc3nc2-1 [HP-1, (R)-4-ethyl-4-hydroxy-3,14-dioxo-3,4,12,14-tetrahydro-1H-pyrano[3’,4’:6,7] indolizino[1,2-b]quinolin-9-yl5-(4-(6-((6-acetyl-8-cyclopentyl-5-methyl-7-oxo-7,8-dihydropyrido[2,3-d]pyrimidin-2-yl)amino)pyridin-3-yl)piperazin-1-yl)-5-oxopentanoate]	9.48 ± 1.59	2.57 ± 0.42	2.29 ± 0.02	32.4 ± 1.33	10.3 ± 1.68	5.46 ± 0.08	15.3 ± 2.51	44.5 to 46.4	17.1 ± 0.31	36.4 ± 0.43	12.4 ± 1.62	5.28 ± 0.81	0.96 ± 0.01	3.41 ± 0.22	15.2 ± 0.54	expression of PI3K, AKT, p-PI3K, and p-AKT [15]: decreased; Q1 (annexin V/PI quadrant) ([16]; NCI-H460, 12h): 0.32; Q2 (annexin V/PI quadrant) ([16]; NCI-H460, 12h): 9.93; Q3 (annexin V/PI quadrant) ([16]; NCI-H460, 12h): 13.4; Q4 (annexin V/PI quadrant) ([16]; NCI-H460, 12h): 76.4; Q1 (annexin V/PI quadrant) ([16]; NCI-H460, 24h): 0.80; Q2 (annexin V/PI quadrant) ([16]; NCI-H460, 24h): 33.7; Q3 (annexin V/PI quadrant) ([16]; NCI-H460, 24h): 31.4; Q4 (annexin V/PI quadrant) ([16]; NCI-H460, 24h): 34.0; Q1 (annexin V/PI quadrant) ([16]; NCI-H460, 36h): 0.66; Q2 (annexin V/PI quadrant) ([16]; NCI-H460, 36h): 61.8; Q3 (annexin V/PI quadrant) ([16]; NCI-H460, 36h): 33.6; Q4 (annexin V/PI quadrant) ([16]; NCI-H460, 36h): 3.91; Protein expressions of Cyclin D, CDK4, CDK6, Rb, and p-Rb [17]: significantly decreased
